According to ChEMBL document CHEMBL1133224, “New ratiometric fluorescent calcium indicators with moderately attenuated binding affinities” (Bioorg Med Chem Lett, 2000):

test: Calcium binding affinity (fluorescent calcium probe) expressed in terms of dissociation constant

Structure (SMILES)	Kd
O=C(O)CN(CC(=O)O)c1ccc(F)cc1OCCOc1cc(-c2cc3ccc(C(=O)O)cc3[nH]2)ccc1N(CC(=O)O)CC(=O)O	470 nM
O=C(O)CN(CC(=O)O)c1ccc(F)cc1OCCOc1cc(-c2nc3cc(C(F)(F)F)ccc3s2)ccc1N(CC(=O)O)CC(=O)O	1400 nM
O=C(O)CN(CC(=O)O)c1cc(F)ccc1OCCOc1cc2cc(-c3ncc(C(=O)O)o3)oc2cc1N(CC(=O)O)CC(=O)O	770 nM
O=C(O)CN(CC(=O)O)c1ccc(Cl)cc1OCCOc1cc2cc(-c3ncc(C(=O)O)o3)oc2cc1N(CC(=O)O)CC(=O)O	400 nM
Cc1ccc(N(CC(=O)O)CC(=O)O)c(OCCOc2cc(-c3nc4cc(C(F)(F)F)ccc4s3)ccc2N(CC(=O)O)CC(=O)O)c1	660 nM
O=C(O)CN(CC(=O)O)c1cc2oc(-c3ncc(C(=O)O)o3)cc2cc1OCCOc1c(F)cccc1N(CC(=O)O)CC(=O)O	5300 nM

Further molecules by falling Kd, results first:

Kd	Structure (SMILES)
400 nM	O=C(O)CN(CC(=O)O)c1ccc(F)cc1OCCOc1cc2cc(-c3ncc(C(=O)O)o3)oc2cc1N(CC(=O)O)CC(=O)O
230 nM	Cc1ccc(N(CC(=O)O)CC(=O)O)c(OCCOc2cc(-c3cc4ccc(C(=O)O)cc4[nH]3)ccc2N(CC(=O)O)CC(=O)O)c1
140 nM	Cc1ccc(N(CC(=O)O)CC(=O)O)c(OCCOc2cc3cc(-c4ncc(C(=O)O)o4)oc3cc2N(CC(=O)O)CC(=O)O)c1
